Test results taken from ChEMBL document CHEMBL3430912, “GSK Tres Cantos Anti-Kinetoplastid Screening (TCAKS) Data”.

Tests used:
[1] = GSK_TCAKS: pIC50 HepG2 human cell line viability assay using luminiscence. […] Seeding density was checked to ensure that new mono-layers were not more than 50% confluent at the time of harvesting. Cell suspension was added to 500 mL of the same medium at a final density of 1.2 * 10^5 cells/mL. This cell suspension was dispensed (25 uL, 3000 cells per well) into 384-well clear-bottom plates using a Multidrop Combi dispenser. Prior to addition of the cell suspension, the screening compounds (250 nL) were pre-dispensed into the plates with an Echo liquid handler. Plates were incubated for 48 h at 37C, 5% CO2. After incubation, plates equilibrated at room temperature for 30 min before proceeding to develop the luminescent signal. The signal developer, CellTiter-Glo Reagent, was allowed to equilibrate at room temperature for 30 min and added to the plates (25uL per well) using a Multidrop Combi dispenser. Plates were left for 10 min at room temperature for stabilization and then read using a ViewLux.; assay type: toxicity, cell-based
Trypanosoma cruzi [2] = assay: (§1) GSK_TCAKS: pIC50 Trypanosoma cruzi Imaging: Amastigotes/Cell. […] Cells were then washed once with PBS before infection. T. cruzi trypomastigotes, collected at days 5 to 8 after infection from LLC-MK2 parasite infected cultures, were allowed to swim out for 4h at 37C from a centrifuged pellet (2,500 rpm/10 min/room temperature). Trypomastigotes were then collected and counted in a CASY Cell Counter. Trypomastigotes, in supplemented DMEM, were added to H9c2 cultures in a multiplicity of infection of 1 and incubated for 18 h. Cells were washed once with PBS before incubation of the infected H9c2 monolayer with trypsin (Life-Technologies) to detach cells from the flask. Cells were counted in a CASY Cell Counter using a 150 um capillary and their density set at 5 * 10^4 cells per mL in supplemented assay DMEM. Infected H9c2 were dispensed into 384-well poly-lysine coated assay plates at 50uL per well using a Multidrop Combi dispenser. After seeding them, the plates were incubated at 37C, 5% CO2 for 72h. Cultures were then fixed and stained by addition of 50 uL of a solution containing 8% formaldehyde and 4 uM DRAQ5 DNA dye (BioStatus, UK) per well. […] Five images were collected per well for reliable statistical analysis. Automated image analysis was performed with a script developed on Acapella High Content Imaging and Analysis Software (PerkinElmer). Output: number of amastigotes per cell as infection level measurement.; assay type: functional, organism-based, Rattus norvegicus; conditions: H9c2, 4 h
Trypanosoma cruzi [3] = assay: GSK_TCAKS: pIC50 Trypanosoma cruzi viability assay using beta-GAL activity. This assay was run at single shot at 5uM compound concentration per well. The biological reagents consisted of NIH-3T3 host cells and trypomastigotes parasitic cells; both cell types were set to a 3.3 * 10^5 cells/mL dilution in assay DMEM by means of a CASY cell counter device using a 60um capillary. 6 uL of the mixture were dispensed per well (about 1 * 10^3 host-cells and 1 * 10^3 parasites) with a Multidrop Combi dispenser. […] In all wells, the percentage of DMSO never exceeded 0.5%. Plates incubated for four days at 37C, 5% CO2. The substrate used for the assay fluorescence intensity (FLINT) readout was resorufin-beta-D-galactopiranoside (Sigma-Aldrich) at 5uM per well. It was diluted in PBS supplemented with the soft detergent Igepal (Fluka).; assay type: functional, organism-based, Mus musculus; conditions: Tulahuen, NIH3T3
Leishmania donovani [4] = assay: GSK_TCAKS: pIC50 Leishmania donovani Imaging: Amastigotes/Macrophages. Assay plates (384-well) were prepared by adding 250nL of compound to each well. For single shot assay, the final compound concentration was 5 uM. […] Automated image analysis was performed with a script developed on Acapella High Content Imaging and Analysis Software (PerkinElmer). Output: Average number of amastigotes per macrophage cell were reported for each well.; assay type: functional, organism-based, Homo sapiens; conditions: THP-1
[5] = tested on: Trypanosoma brucei brucei; assay: GSK_TCAKS: pIC50 Trypanosoma brucei viability assay using fluorescence intensity. Assay plates (1536-well) were prepared by dispensing 25nL of compound solution per well using an Echo acoustic dispenser (Labcyte).; assay type: functional, organism-based; conditions: Lister 427, 2 h
[6] = target: Sterol 14-alpha demethylase (Trypanosoma cruzi (strain CL Brener), UniProt Q7Z1V1); assay: GSK_TCAKS: pIC50 CYP51 from Trypanosoma cruzi.; assay type: functional
Sterol 14-alpha demethylase, sequence (Q7Z1V1 whole entry): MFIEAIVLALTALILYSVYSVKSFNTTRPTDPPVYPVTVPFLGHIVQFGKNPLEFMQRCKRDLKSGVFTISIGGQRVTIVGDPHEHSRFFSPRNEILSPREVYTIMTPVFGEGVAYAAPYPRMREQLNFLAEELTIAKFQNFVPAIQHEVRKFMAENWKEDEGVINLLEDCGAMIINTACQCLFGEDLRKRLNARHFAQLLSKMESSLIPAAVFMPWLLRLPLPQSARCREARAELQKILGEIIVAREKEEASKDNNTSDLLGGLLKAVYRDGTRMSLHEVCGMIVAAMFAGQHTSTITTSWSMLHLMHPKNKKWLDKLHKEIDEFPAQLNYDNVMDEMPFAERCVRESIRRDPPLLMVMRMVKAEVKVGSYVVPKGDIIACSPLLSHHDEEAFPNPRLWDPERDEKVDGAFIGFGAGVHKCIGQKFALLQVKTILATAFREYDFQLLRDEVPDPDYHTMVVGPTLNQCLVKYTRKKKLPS

Leishmania donovani [7] = assay: GSK_TCAKS: pIC50 Leishmania donovani viability assay using fluorescence intensity. Assay plates (1536-well) were prepared by adding 30nL per well of compound. For single shot assay, the final compound concentration was 5uM. […] Briefly, eGFP LdBOB axenic amastigotes were harvested, fixed and counted in a CASY cell counter (Roche-Applied Science). A final concentration of 1.5 * 10^5 cells per well were prepared in amastigote media containing 500 U/mL penicillin/streptomycin (Invitrogen) and 6uL was dispensed to each experimental well using a Multidrop Combi dispenser (Thermo Scientific). 6uL of assay media was dispensed to control columns used as reference for 100% compound response. Following incubation for 72 h at 37C, 5% CO2, 2 uL of resazurin was added to each well at a final concentration of 0.5 mM in phosphate buffered saline (PBS) with IGEPAL (Sigma-Aldrich), 0.05% (v/v).; assay type: functional, organism-based
Trypanosoma cruzi [8] = assay: as §1, with “H2C9” for “Trypanosoma cruzi”, “H9c2 Host Cardiomyocytes.” for “Amastigotes/Cell.”, “Number” for “number”, “H9c2 Host Cardiomyocytes nuclei to determine drug-related cytotoxicity.” for “amastigotes per cell as infection level measurement.”; assay type: functional, organism-based, Rattus norvegicus; conditions: H9c2, 4 h
Leishmania donovani [9] = assay: GSK_TCAKS: pIC50 Leishmania donovani Imaging: THP-1 Host Macrophages. Assay plates (384-well) were prepared by adding 250nL of compound to each well. For single shot assay, the final compound concentration was 5 uM. […] Automated image analysis was performed with a script developed on Acapella High Content Imaging and Analysis Software (PerkinElmer). Output: THP-1 cell count were reported for each well.; assay type: functional, organism-based, Homo sapiens
Trypanosoma cruzi [10] = assay: GSK_TCAKS: pIC50 Trypanosoma cruzi Imaging: Infected Cells. […] Cells were then washed once with PBS before infection. T. cruzi trypomastigotes, collected at days 5 to 8 after infection from LLC-MK2 parasite infected cultures, were allowed to swim out for 4h at 37C from a centrifuged pellet (2,500 rpm/10 min/room temperature). Trypomastigotes were then collected and counted in a CASY Cell Counter. Trypomastigotes, in supplemented DMEM, were added to H9c2 cultures in a multiplicity of infection of 1 and incubated for 18 h. Cells were washed once with PBS before incubation of the infected H9c2 monolayer with trypsin (Life-Technologies) to detach cells from the flask. Cells were counted in a CASY Cell Counter using a 150 um capillary and their density set at 5 * 10^4 cells per mL in supplemented assay DMEM. Infected H9c2 were dispensed into 384-well poly-lysine coated assay plates at 50uL per well using a Multidrop Combi dispenser. After seeding them, the plates were incubated at 37C, 5% CO2 for 72h. Cultures were then fixed and stained by addition of 50 uL of a solution containing 8% formaldehyde and 4 uM DRAQ5 DNA dye (BioStatus, UK) per well. […] Five images were collected per well for reliable statistical analysis. Automated image analysis was performed with a script developed on Acapella High Content Imaging and Analysis Software (PerkinElmer). Output: percentage of infected cells per well as a second infection marker.; assay type: functional, organism-based, Rattus norvegicus; conditions: H9c2, 4 h
Leishmania donovani [11] = assay: GSK_TCAKS: pIC50 Leishmania donovani Imaging: Infected Macrophages. Assay plates (384-well) were prepared by adding 250nL of compound to each well. For single shot assay, the final compound concentration was 5 uM. […] Automated image analysis was performed with a script developed on Acapella High Content Imaging and Analysis Software (PerkinElmer). Output: Percent of infected macrophage cells were reported for each well.; assay type: functional, organism-based, Homo sapiens; conditions: THP-1
[12] = tested on: Trypanosoma brucei brucei; assay: GSK_TCAKS: pIC50 Trypanosoma brucei viability assay using luminiscence. Assay plates (1536-well) were prepared. T. brucei cultures were harvested and counted in a CASY cell counter. A parasite suspension was prepared at a final concentration of 5 * 10^4 cells/mL in complete HMI9 medium and 6uL was dispensed to all wells containing compounds using a Multidrop Combi dispenser. 6uL of HMI9 media with 0.4% DMSO were dispensed to control columns. Plates were incubated for 24 h at 37C, 5% CO2 then tempered for 10 min at room temperature. ATP content was quantified by adding 4 uL of CellTiter-Glo Reagent (Promega) according to the manufacturer's instructions. Luminescence was measured using a ViewLux.; assay type: functional, organism-based; conditions: Lister 427, CASY

| Structure (SMILES) | IC50 at 48 h [1] [µM] | IC50 (Trypanosoma cruzi [2]) [µM] | IC50 (Trypanosoma cruzi [3]) [µM] | IC50 (Leishmania donovani [4]) [µM] | IC50 [5] [µM] | IC50 [6] [µM] | IC50 (Leishmania donovani [7]) [µM] | IC50 (Trypanosoma cruzi [8]) [µM] | IC50 (Leishmania donovani [9]) [µM] | IC50 (Trypanosoma cruzi [10]) [µM] | IC50 (Leishmania donovani [11]) [µM] | IC50 [12] [µM] |
| --- | --- | --- | --- | --- | --- | --- | --- | --- | --- | --- | --- | --- |
| O=C(NCCc1csc(-c2ccc(F)cc2)n1)c1ccco1 | > 100 | 1.26 | 2.24 | > 50.1 | 0.398 | > 100 | > 50.1 | > 50.1 | > 50.1 | 1.58 | > 50.1 | 0.501 |
| OCC1CCCCN1c1cc(-c2ccccn2)nc(Nc2ccccc2)n1 (centres undefined) | 31.6 | 2 | 0.794 | 1 | 5.01 | 79.4 | 3.16 | 0.501 | 20 | 3.98 | 1.26 | 6.31 |
| Cc1ccc(Nc2nc(-c3ccccn3)cc(N3CCCC(O)C3)n2)cc1 (centres undefined) | 39.8 | 2.51 | 0.501 | 0.501 | 3.16 | 25.1 | 2 | 0.501 | 25.1 | 6.31 | 0.794 | 3.16 |
| COc1ccc(Nc2nc(-c3ccccn3)cc(N3CCCC(O)C3)n2)cc1 (centres undefined) | 39.8 | 7.94 | 0.631 | 0.794 | 3.98 | 50.1 | 2.51 | 3.98 | 25.1 | 5.01 | 1 | 12.6 |
| Cc1nn(-c2nc(N)nc(-c3ccccn3)n2)c(N)c1-c1ccccc1 | 63.1 | 1.26 | 3.98 | 2 | 2 | > 100 | 5.01 | 12.6 | 20 | 5.01 | 3.16 | 6.31 |
| Nc1nc(-c2ccccn2)nc(-n2nc(-c3ccccc3)cc2N)n1 | 10 | 0.316 | 0.501 | 0.794 | 1 | > 100 | 2 | 2 | 10 | 2.51 | 0.794 | 3.16 |
| CC(C)(C)C(=O)NCCc1csc(-c2ccc(F)cc2)n1 | > 100 | 2.51 | 3.55 | > 50.1 | 0.631 | 79.4 | > 50.1 | > 50.1 | > 50.1 | 3.16 | > 50.1 | 0.794 |
| COCc1cnc2c(c1SCc1c(F)cccc1Cl)c(=O)n(C)c(=O)n2C | > 100 | 2.51 | > 50.1 | 5.01 | 3.98 | 25.1 | 3.98 | > 50.1 | > 50.1 | 3.98 | 5.01 | > 39.8 |
| CNC(=O)C1Cc2ccccc2N1C(=O)COc1cccc(OC)c1 (centres undefined) | > 100 | > 50.1 | > 50.1 | > 50.1 | 0.631 | 100 | > 50.1 | > 50.1 | > 50.1 | > 50.1 | > 50.1 | 1 |
| CCOc1ccc(OCC(=O)N2c3ccccc3CC2C(=O)NC)cc1 (centres undefined) | > 100 | > 50.1 | > 50.1 | > 50.1 | 0.501 | > 100 | > 50.1 | > 50.1 | > 50.1 | > 50.1 | > 50.1 | 0.794 |
| CNC(=O)C1Cc2ccccc2N1C(=O)Cc1ccccc1 (centres undefined) | > 100 | > 50.1 | > 50.1 | > 50.1 | 0.631 | > 100 | > 50.1 | > 50.1 | > 50.1 | > 50.1 | > 50.1 | 1 |
| CNC(=O)C1Cc2ccccc2N1C(=O)Cc1ccc(OC)cc1 (centres undefined) | > 100 | > 50.1 | > 50.1 | 12.6 | 0.398 | > 100 | > 50.1 | > 50.1 | 7.94 | > 50.1 | 7.94 | 0.501 |
